Reference: US7081447B2, “Organic compounds with biological activity as thrombin inhibitors and use thereof” (Novel Science International GmbH, priority 2001, dated 2006)

Experiments:
thrombin [1] = target: T1, thrombin (Homo sapiens, UniProt P00734); settings: cited from earlier work
thrombin [2] = target: T1, thrombin; test: in vitro inhibition of thrombin amidase activity (fluorogenic substrate Tos-Gly-Pro-Arg-(7-amino-4-methylcoumarin)); assay type: biochemical; parameters: with 10 μL of human thrombin solution
Method: (§1) The values of the inhibition constant Ki were obtained from assays, in which thrombin hydrolyzes the fluorogenic substrate Tos-Gly-Pro-Arg-(7-amino-4-methylcoumarin). The assays were performed in 30 μL of assay buffer (0.05 M Tris, 0.1 M NaCl, 0.1% PEG 8000, pH 7.6) with 10 μL of human thrombin solution (10^−5 U/μL in assay buffer) and 140 μL of a solution of the fluorogenic substrate in assay buffer at a concentration v of 30 μM. Solutions of the test compound (10 μL) were added at various concentrations. The rates of substrate hydrolysis were measured by monitoring the reactions of 7-amino-4-methylcoumarin release at 460 nm with use of AMC. The reaction reached a steady state within 3 minutes after thrombin was combined with the substrate and an inhibitor. The kinetic data of the competitive inhibition (Km, Vmax, and Ki) were analyzed with the aid of the Hanes plot (A/V vs. A at various i values).
as §1, with “concentration” for “concentration v”, “using” for “with the aid of”, “values for A; here, A is the substrate concentration and V the reaction rate).” for “i values).”
as §1, with “conducted” for “performed”, “concentration” for “concentration v”, “using” for “with the aid of”, “values for A; here, A is the substrate concentration and V the reaction rate).” for “i values).”

[3] = peptide concentration of 1 μM, 1 µM
[4] = peptide concentration of 250 nM

Row | Thrombin inhibition (thrombin amidase activity) (thrombin [2]; [3]) [%] | Substance | further results
1 | – | H-D-Phe-Pro-Arg-H | Ki (thrombin [1]): 70 nM
2 | 47 | N-Acetyl-L-Ser-L-Ala-L-Cha-D-Pro-D-Tyr-L-Arg amide [Example 67] | –
3 | 67 | N-Acetyl-L-Ser-L-Arg-L-Cha-D-Pro-D-Tyr-L-Arg amide [Example 18] | –
4 | 51 | N-Acetyl-L-Ser-L-Arg-L-Cha-D-Pro-D-Tyr-L-Arg amide [Example 35] | –
5 | 51 | N-Acetyl-L-Ser-L-Arg-L-Cha-D-Pro-D-Tyr-L-Arg amide [Example 50] | –
6 | 51 | N-Acetyl-L-Ser-L-Arg-L-Cha-D-Pro-D-Tyr-L-Arg amide [Example 68] | –
7 | – | N-Acetyl-L-Ser-L-Cha-D-Pro-D-Tyr-L-Arg amide [Example 22] | Thrombin inhibition (thrombin amidase activity) (thrombin [2]; peptide concentration of 1 μM): 31%
8 | – | N-Acetyl-L-Ser-L-Cha-L-Cha-D-Pro-D-Tyr-L-Arg amide [Example 19] | Thrombin inhibition (thrombin amidase activity) (thrombin [2]; peptide concentration of 1 μM): 43%
9 | 49 | N-Acetyl-L-Ser-L-Ser-L-Cha-D-Pro-D-Tyr-L-Arg amide [Example 13] | –
10 | 40 | N-Acetyl-L-Ser-L-Ser-L-Cha-D-Pro-D-Tyr-L-Arg amide [Example 31] | –
11 | 40 | N-Acetyl-L-Ser-L-Ser-L-Cha-D-Pro-D-Tyr-L-Arg amide [Example 46] | –
12 | 40 | N-Acetyl-L-Ser-L-Ser-L-Cha-D-Pro-D-Tyr-L-Arg amide [Example 64] | –
13 | – | N-Acetyl-L-Tea-D-Cha-L-Aze-D-Tyr-L-Har amide [Example 82] | Thrombin inhibition (thrombin amidase activity) (thrombin [2]; [4]): 74%
14 | – | N-Acetyl-L-Trp-D-Cha-L-Aze-D-Tyr-L-Har amide [Example 75] | Thrombin inhibition (thrombin amidase activity) (thrombin [2]; [4]): 76%
15 | – | N-Acetyl-L-Trp-L-Cha-D-Pro-D-Tyr-L-Arg amide [Example 33] | Thrombin inhibition (thrombin amidase activity) (thrombin [2]; peptide concentration of 1 μM): 63%
16 | – | N-Acetyl-L-Tyr-D-Pro-L-Cha-D-Pro-D-Tyr-L-Arg amide [Example 39] | Thrombin inhibition (thrombin amidase activity) (thrombin [2]; peptide concentration of 1 μM): 44%
17 | 51 | N-Acetyl-L-Tyr-L-Cit-L-Cha-D-Pro-D-Tyr-L-Arg amide [Example 15] | –
18 | 55 | N-Acetyl-L-Tyr-L-Cit-L-Cha-D-Pro-D-Tyr-L-Arg amide [Example 30] | –
19 | 55 | N-Acetyl-L-Tyr-L-Cit-L-Cha-D-Pro-D-Tyr-L-Arg amide [Example 45] | –
20 | 55 | N-Acetyl-L-Tyr-L-Cit-L-Cha-D-Pro-D-Tyr-L-Arg amide [Example 63] | –
